Source: article PMC8524670 (Pharmacology Research & Perspectives, 2021)

Experiments:
P-gp [1] = target: T1, P-gp (Homo sapiens, UniProt P08183); test: P-gp inhibition in Caco-2 cells; assay type: in vitro ADME; details: up to 10 μM
CYP1A2 [2] = details: DDI basic model value for induction
CYP2D6 = CYP2D6 (Homo sapiens, UniProt P10635); test: CYP reversible inhibition in HLMs; assay type: in vitro ADME
[3] = Clinical pharmacokinetic parameters of zanubrutinib; assay type: in vivo, human
P-gp [4] = target: T1, P-gp; test: P-gp transportation in MDCK-MDR1 cells; assay type: in vitro ADME
rCYP3A4 = rCYP3A4 (Homo sapiens, UniProt P08684); test: CYP phenotyping with recombinant CYPs; details: 1 μM, only rCYP3A4 among 7 rCYPs
rCYP3A4, sequence (P08684 whole entry): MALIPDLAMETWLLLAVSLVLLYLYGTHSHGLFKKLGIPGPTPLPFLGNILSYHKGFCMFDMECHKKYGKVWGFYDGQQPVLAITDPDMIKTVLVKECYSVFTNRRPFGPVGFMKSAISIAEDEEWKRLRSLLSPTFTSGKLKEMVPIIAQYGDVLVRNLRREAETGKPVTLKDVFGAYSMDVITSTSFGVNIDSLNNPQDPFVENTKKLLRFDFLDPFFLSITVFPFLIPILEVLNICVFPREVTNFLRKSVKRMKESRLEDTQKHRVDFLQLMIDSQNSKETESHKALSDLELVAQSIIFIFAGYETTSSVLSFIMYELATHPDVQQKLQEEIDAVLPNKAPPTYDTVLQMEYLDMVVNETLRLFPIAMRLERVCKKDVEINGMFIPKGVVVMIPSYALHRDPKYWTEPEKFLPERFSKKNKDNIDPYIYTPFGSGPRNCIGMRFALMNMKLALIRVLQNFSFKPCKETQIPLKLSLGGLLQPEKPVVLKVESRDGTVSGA

CYP2C9 [5] = target: CYP2C9 (Homo sapiens, UniProt P11712); test: Time-dependent CYP inhibition in HLMs; details: 10 µM zanubrutinib, 30 min pre-incubation with HLMs and NADPH
CYP2C9 (Homo sapiens, UniProt P11712), sequence (P11712 whole entry): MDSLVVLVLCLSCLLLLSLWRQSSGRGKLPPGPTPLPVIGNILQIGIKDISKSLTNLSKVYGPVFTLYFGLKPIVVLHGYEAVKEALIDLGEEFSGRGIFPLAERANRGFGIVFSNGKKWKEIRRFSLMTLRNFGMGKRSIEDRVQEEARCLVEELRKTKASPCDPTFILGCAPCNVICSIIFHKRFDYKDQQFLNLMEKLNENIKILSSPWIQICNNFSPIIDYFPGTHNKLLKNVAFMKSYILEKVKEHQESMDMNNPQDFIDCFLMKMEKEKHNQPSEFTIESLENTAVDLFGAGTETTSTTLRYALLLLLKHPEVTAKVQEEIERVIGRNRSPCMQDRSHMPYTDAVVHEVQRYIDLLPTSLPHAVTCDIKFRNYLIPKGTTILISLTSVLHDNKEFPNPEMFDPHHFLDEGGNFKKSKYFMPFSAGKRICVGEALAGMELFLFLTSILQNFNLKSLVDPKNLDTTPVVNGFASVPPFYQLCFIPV

[6] = CYP phenotyping in HLMs with chemical inhibitors; details: 1 μM
CYP2C9 [7] = details: coadministration of zanubrutinib; cited from earlier work
[8] = estimated from PBPK modeling; cited from earlier work
CYP1A2 [9] = test: in vitro; details: human
OATP1B3 [10] = target: T2, OATP1B3 (Homo sapiens, UniProt Q9NPD5); test: SLC transportation assay in HEK293 cells; assay type: in vitro ADME; details: uptake ratios <2 at 0.1, 0.3, 5 µM
T2 sequence (Q9NPD5 1-702): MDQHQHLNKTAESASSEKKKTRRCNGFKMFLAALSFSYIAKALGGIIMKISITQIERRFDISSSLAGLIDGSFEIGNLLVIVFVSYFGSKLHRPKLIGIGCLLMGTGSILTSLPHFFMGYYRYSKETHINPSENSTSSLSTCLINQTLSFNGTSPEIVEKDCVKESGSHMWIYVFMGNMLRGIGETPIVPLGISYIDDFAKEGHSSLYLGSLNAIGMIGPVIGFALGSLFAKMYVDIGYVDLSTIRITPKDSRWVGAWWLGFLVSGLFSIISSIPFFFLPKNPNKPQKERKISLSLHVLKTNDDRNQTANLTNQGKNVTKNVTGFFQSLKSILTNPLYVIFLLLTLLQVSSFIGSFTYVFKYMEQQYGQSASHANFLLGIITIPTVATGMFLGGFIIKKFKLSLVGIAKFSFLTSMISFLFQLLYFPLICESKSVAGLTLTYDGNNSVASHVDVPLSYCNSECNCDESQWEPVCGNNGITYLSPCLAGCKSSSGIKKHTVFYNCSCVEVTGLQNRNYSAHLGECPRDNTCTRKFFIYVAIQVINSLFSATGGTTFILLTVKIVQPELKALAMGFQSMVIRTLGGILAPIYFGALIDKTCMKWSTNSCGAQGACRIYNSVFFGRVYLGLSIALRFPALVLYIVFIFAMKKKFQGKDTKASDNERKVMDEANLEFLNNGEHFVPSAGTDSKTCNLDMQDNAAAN

[11] = In vitro metabolism in liver microsomes; assay type: in vitro ADME; details: 10 μM, 60-min incubation with NADPH and UDPGA; 11 metabolites (M1–M11)
CYP1A2 [12] = target: T3, CYP1A2 (Homo sapiens, UniProt P05177); details: 10 µM zanubrutinib, 30 min pre-incubation with HLMs and NADPH
T3 sequence (P05177 1-516): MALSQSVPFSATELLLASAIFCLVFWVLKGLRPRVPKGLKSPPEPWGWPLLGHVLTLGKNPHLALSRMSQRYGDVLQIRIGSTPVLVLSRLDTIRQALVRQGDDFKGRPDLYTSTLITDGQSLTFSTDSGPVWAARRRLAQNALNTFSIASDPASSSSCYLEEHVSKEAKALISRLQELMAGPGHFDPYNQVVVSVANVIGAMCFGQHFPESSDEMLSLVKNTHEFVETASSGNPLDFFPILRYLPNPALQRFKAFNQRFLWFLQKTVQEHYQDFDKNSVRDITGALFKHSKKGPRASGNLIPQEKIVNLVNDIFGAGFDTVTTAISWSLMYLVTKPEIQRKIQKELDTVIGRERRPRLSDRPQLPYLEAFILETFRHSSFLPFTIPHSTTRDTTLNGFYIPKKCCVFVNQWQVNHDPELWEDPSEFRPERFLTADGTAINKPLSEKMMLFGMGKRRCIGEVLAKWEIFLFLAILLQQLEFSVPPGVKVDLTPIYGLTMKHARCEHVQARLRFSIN

CYP3A = details: cited from earlier work
OATP1B3 [13] = target: T2, OATP1B3; test: SLC inhibition assay in HEK293 cells; assay type: in vitro ADME; details: 0.05–5 µM

T1 sequence (P08183 whole entry): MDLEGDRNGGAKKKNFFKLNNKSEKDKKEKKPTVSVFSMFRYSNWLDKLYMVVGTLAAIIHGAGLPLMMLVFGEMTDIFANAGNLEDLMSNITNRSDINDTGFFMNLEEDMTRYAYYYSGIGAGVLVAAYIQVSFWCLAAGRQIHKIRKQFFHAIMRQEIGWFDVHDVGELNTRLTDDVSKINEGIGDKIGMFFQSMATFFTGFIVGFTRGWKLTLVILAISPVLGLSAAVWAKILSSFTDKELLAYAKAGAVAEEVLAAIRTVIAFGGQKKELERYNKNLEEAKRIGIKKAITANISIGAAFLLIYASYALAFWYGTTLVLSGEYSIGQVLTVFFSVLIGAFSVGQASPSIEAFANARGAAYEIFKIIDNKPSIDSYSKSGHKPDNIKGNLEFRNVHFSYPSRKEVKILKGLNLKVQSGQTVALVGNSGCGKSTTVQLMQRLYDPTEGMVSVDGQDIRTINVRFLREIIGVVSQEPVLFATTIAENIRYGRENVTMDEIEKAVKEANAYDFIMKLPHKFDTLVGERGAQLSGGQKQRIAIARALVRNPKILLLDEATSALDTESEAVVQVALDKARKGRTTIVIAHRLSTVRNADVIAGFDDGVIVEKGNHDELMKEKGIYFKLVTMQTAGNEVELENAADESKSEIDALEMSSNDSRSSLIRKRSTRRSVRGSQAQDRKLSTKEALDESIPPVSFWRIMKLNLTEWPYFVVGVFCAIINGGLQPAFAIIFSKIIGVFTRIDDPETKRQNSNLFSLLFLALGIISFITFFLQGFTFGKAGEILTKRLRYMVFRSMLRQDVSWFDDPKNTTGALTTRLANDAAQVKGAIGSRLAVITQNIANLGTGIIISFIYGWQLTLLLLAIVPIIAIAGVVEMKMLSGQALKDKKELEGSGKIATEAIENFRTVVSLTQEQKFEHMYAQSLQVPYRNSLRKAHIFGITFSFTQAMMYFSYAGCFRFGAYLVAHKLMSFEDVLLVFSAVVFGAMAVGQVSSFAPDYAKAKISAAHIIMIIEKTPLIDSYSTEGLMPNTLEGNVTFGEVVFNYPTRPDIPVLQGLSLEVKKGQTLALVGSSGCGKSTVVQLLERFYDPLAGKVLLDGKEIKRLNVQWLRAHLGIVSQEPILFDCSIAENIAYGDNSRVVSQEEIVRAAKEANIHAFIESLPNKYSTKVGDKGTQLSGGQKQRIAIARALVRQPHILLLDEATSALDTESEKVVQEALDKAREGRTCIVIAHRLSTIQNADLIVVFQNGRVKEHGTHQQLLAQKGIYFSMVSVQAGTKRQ
CYP2D6, sequence (P10635 whole entry): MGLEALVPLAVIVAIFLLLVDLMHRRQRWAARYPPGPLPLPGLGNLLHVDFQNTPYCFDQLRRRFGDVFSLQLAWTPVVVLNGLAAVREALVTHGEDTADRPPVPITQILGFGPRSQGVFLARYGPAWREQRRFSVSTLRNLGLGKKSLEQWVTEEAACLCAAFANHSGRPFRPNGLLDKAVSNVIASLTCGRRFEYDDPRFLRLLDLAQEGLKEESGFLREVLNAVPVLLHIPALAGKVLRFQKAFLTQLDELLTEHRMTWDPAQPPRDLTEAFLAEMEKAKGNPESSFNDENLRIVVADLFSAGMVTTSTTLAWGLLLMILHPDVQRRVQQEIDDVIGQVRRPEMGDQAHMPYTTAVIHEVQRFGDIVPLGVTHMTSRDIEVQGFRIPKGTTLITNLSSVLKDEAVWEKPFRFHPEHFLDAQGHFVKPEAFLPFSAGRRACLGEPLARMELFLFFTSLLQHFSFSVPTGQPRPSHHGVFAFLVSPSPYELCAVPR

In the case of `C=CC(=O)N1CCC([C@@H]2CCNc3c(C(N)=O)c(-c4ccc(Oc5ccccc5)cc4)nn32)CC1` [zanubrutinib], the P-gp inhibitor status (P-gp [1]) is reported as “not a significant inhibitor of P‐gp”, the “R 3” value (CYP1A2 [2]) is reported as 0.37 and the IC50 (CYP2D6) is reported as 72.9 µM. The Ki (CYP2D6; Ki, dextromethorphan, Ki = IC50/2) was 36.5 µM, the Ki (CYP2D6; Kiu, dextromethorphan, unbound Ki) was 28.8 µM and the R1 (CYP2D6; dextromethorphan, DDI basic model, hepatic) was 1.00. The Ah (CYP2D6; dextromethorphan, static model term, liver inhibition) was 1.00, the “Igut (intestinal concentration, Dose/250 ml)” value ([3]; 160 mg BID) was ~ 1360 µM and the “Fa (fraction absorbed)” value ([3]; estimated from a human mass balance study) was 0.70. It also gave a Papp A→B at 90 min, 1 µM (P-gp [4]; dog, MDCK-MDR1) of 9.16 ± 0.1 ×10⁻⁶ cm/s, a Papp A→B at 90 min, 10 µM (P-gp [4]; dog, MDCK-MDR1) of 21.9 ± 0.049 ×10⁻⁶ cm/s and a Papp B→A at 90 min, 1 µM (P-gp [4]; dog, MDCK-MDR1) of 31.7 ± 0.12 ×10⁻⁶ cm/s. For the same compound, the Papp B→A at 90 min, 10 µM (P-gp [4]; dog, MDCK-MDR1) was 47.9 ± 0.094 ×10⁻⁶ cm/s, the P-gp substrate status (P-gp [4]; efflux ratio >2 indicates substrate) was “potential P‐gp substrate” and the “Disappearance of zanubrutinib with recombinant CYP” value (rCYP3A4) was “remarkable disappearance”. The “Percent loss of enzymatic activity” value (CYP2C9 [5]) was 5.86%, the Zanubrutinib remaining ([6]; 30-min incubation with HLMs + CYP3A inhibitor ketoconazole 1 µM) was 98.9% and the Zanubrutinib remaining ([6]; 30-min incubation with HLMs, no inhibitor) was 32.8%. For the same compound, the “Effect on the clinical PK of warfarin” value (CYP2C9 [7]) was “no remarkable effect”, the “Fg (fraction available after intestinal metabolism)” value [8] was 0.44 and the EC50 at 2 days (CYP1A2 [9]) was 0.29 µM. For the same compound, the Substrate status (OATP1B3 [10]) was “unlikely to be a substrate”, the “Metabolism in liver microsomes” value [11] was “extensively metabolized” and the “Percent loss of enzymatic activity” value (CYP1A2 [12]) was 8.10%. For the same compound, the “Reduction in AUC0‐inf of zanubrutinib” value (CYP3A; co-administered with CYP3A inducer rifampin) was 13.5 fold, the “Increase in AUC0‐inf of zanubrutinib” value (CYP3A; co-administered with CYP3A inhibitor itraconazole) was 3.8 fold and the “Inhibition of uptake activity” value (OATP1B3 [13]) was “not inhibited”.
